Drawing on patent US12509424B2, “Compound and composition as PDGF receptor kinase inhibitor” (NIPPON SHINYAKU CO., LTD., priority 2019, dated 2025), this text covers IC50 for 21 compounds.

Each structure is given as a SMILES string. Where two headings read alike, the source gives them in different places. Some results are limits rather than exact numbers.

For experiment [1], the target named is TEL-KIT fusion gene transfected cells (Ba/F3). In words: Suppression of proliferation of TEL-KIT fusion gene transfected Ba/F3 cells.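 Also: viable cells quantified via formazan from tetrazolium reduction, inhibition scaled with 0.1% DMSO control as 0% and medium-only blank as 100%, IC50 from two-parameter logistic fit.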 The conditions noted are these: read-out: KIT/BaF3 proliferation inhibition (IC50); TEL-KIT expressing Ba/F3 cells, 72 hours, final concentration 0.1 to 10,000 nM.
The target of experiment [2] is TEL-PDGFRβ fusion gene transfected cells (Ba/F3). In words: Suppression of proliferation of TEL-PDGFRβ fusion gene transfected Ba/F3 cells. In kind it is cell-based, human. The conditions noted are these: TEL-PDGFRβ expressing Ba/F3 cells, 72 hours, final concentration 0.1 to 10,000 nM; read-out: PDGFR β/BaF3 proliferation inhibition (IC50). An excerpt:
2. Preparation of Test Substance
4. Analysis of Measurement Results

The test system of experiment [3] is pulmonary arterial smooth muscle cells. The experiment can be described thus: Suppression of proliferation of pulmonary arterial smooth muscle cells (PDGF-BB stimulation, BrdU). In kind it is cell-based. The conditions noted are these: PASMC, read-out: Human normal PASMC proliferation suppression (PDGF stimulation_IC50). In outline: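 Healthy human pulmonary arterial smooth muscle cells, serum-starved a day in 0.1% FBS medium, were treated with compound at final 3 to 10,000 nM plus human PDGF-BB (final 10 ng/mL) and BrdU. After 1 day of culture, BrdU uptake was measured with an anti-BrdU antibody.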

In the next experiment the target is PDGFR-β (Homo sapiens (Human), UniProt P09619). In words: PDGFR-β tyrosine kinase inhibitory action (HTRF KinEASE-TK). In kind it is biochemical. The following applies: PDGFR-β enzyme 1 ng/μL, 30° C. for 30 minutes; read-out: PDGF-β IC50. An outline of the steps: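 Recombinant PDGFR-β at 1 ng/μL final with TK substrate-3-biotin in a substrate solution containing 0.6 μM ATP; buffer 50 mM HEPES pH 7.0, 5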
In general terms: TR-FRET usually uses a lanthanide donor and a delayed reading to cut background.

Setting [4] is: 24 h, healthy human derived pulmonary arterial smooth muscle cells, human PDGF-BB 10 ng/mL stimulation, BrdU uptake after 1 day, test substance final concentration 3 to 10,000 nM.
The mark [5] stands for this setting: human PDGF-BB 10 ng/mL, BrdU uptake, final concentration 3 to 10,000 nM.

PDGFR-β, sequence (P09619 33-1106): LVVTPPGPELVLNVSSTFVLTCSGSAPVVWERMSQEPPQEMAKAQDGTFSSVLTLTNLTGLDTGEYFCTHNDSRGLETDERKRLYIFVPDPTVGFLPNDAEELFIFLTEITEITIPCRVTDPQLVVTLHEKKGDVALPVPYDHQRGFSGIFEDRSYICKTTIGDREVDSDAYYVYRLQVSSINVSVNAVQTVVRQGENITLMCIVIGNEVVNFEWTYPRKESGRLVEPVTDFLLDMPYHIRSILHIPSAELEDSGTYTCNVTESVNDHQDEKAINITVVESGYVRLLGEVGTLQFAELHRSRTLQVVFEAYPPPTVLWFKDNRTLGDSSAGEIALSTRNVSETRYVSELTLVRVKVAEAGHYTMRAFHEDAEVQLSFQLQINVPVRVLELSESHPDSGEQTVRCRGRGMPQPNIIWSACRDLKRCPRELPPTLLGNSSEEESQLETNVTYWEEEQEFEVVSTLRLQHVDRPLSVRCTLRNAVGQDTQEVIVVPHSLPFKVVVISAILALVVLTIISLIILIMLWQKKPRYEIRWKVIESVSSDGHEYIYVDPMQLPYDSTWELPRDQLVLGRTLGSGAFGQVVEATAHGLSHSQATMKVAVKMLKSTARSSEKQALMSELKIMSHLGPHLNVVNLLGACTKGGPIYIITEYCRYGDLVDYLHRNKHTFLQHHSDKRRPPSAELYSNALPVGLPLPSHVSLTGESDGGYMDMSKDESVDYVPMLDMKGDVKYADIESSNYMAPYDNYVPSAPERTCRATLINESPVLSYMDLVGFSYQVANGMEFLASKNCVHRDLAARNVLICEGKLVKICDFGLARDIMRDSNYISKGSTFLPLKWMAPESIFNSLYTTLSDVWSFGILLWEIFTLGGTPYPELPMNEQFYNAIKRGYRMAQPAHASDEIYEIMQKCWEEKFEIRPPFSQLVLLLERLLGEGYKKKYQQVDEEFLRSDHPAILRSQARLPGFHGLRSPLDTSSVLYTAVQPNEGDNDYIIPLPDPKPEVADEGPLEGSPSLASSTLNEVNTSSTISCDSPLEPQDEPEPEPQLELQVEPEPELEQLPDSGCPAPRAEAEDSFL
TEL-PDGFRβ fusion gene transfected cells (Ba/F3), sequence (P09619 33-1106 limits assumed, change not shown): as the sequence (P09619 33-1106) above
TEL-KIT fusion gene transfected cells (Ba/F3), sequence (P10721 26-976 limits assumed, change not shown): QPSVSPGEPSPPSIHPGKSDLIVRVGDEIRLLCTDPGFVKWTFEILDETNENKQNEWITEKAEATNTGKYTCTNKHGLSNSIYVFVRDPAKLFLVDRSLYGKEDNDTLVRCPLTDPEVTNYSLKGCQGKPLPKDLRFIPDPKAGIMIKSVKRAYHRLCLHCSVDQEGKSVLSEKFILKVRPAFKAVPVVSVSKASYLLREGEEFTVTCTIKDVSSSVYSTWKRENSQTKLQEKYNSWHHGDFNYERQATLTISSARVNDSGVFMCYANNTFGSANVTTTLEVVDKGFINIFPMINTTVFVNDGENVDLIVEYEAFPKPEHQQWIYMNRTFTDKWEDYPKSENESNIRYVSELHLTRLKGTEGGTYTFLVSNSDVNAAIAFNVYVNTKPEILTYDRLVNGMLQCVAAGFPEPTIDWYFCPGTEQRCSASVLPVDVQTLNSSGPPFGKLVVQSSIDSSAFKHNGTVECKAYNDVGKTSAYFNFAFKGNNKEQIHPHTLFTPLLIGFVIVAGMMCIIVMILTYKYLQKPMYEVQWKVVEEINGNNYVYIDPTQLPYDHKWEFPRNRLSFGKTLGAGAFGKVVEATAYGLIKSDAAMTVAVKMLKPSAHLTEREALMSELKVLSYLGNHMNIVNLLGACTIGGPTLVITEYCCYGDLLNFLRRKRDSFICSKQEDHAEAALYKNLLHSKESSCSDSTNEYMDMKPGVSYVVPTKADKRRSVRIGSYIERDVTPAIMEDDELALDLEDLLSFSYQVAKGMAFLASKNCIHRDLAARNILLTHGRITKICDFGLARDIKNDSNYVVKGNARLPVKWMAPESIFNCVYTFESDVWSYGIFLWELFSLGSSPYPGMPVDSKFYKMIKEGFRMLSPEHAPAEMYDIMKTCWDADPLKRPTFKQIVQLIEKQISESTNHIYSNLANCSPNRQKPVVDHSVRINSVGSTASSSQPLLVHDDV

Take `Cc1ccc(C(=O)N[C@@H](CO)[C@@H](O)c2ccccc2)cc1CNc1cncc(-c2ccccc2)n1` [Example 156, N-[(1S,2S)-1,3-dihydroxy-1-phenylpropan-2-yl]-4-methyl-3-{[(6-phenylpyrazin-2-yl)amino]methyl}benzamide]: the IC50 is over 10000 nM in experiment [1], 22 nM in experiment [2], 79 nM in experiment [3] (setting [4]) and 25 nM on PDGFR-β.

Consider `Cc1ccc(C(=O)N[C@H]2CCCC[C@@H]2O)cc1NC(=O)c1cncc(-c2cccc(OC(F)(F)F)c2)c1` [Example 34, N-(5-{[(1S,2S)-2-hydroxycyclohexyl]carbamoyl}-2-methylphenyl)-5-[3-(trifluoromethoxy)phenyl]pyridine-3-carboxamide], for which the IC50 came to 540 nM in experiment [1], 8 nM in experiment [2], 130 nM in experiment [3] (setting [4]) and 19 nM on PDGFR-β.

For the compound `Cc1c(F)cc(C(=O)N[C@H]2CCCC[C@@H]2O)cc1NCc1cncc(-c2ncccn2)c1` [Example 106, 3-fluoro-N-[(1S,2S)-2-hydroxycyclohexyl]-4-methyl-5-({[5-(pyrimidin-2-yl)pyridin-3-yl]methyl}amino)benzamide], the IC50 in experiment [1] came out at 1300 nM; in experiment [2], 2.1 nM; in experiment [3] (setting [4]) it was 140 nM; at PDGFR-β, 67 nM.

Consider `Cc1ccc(C(=O)N[C@H]2CCCC[C@@H]2O)cc1NC(=O)c1cncc(NC2CC2)c1` [Example 4, 5-(cyclopropylamino)-N-(5-{[(1S,2S)-2-hydroxycyclohexyl]carbamoyl}-2-methylphenyl)pyridine-3-carboxamide], for which the IC50 in experiment [1] was found to be 1500 nM; in experiment [2] it was 26 nM; in experiment [3] (setting [5]), 220 nM; on PDGFR-β it was 4.9 nM.

Consider `Cc1ccc(C(=O)N[C@H]2CCCC[C@@H]2O)cc1NC(=O)c1cnc(NC2(C)CC2)s1` [Example 39, N-(5-{[(1S,2S)-2-hydroxycyclohexyl]carbamoyl}-2-methylphenyl)-2-[(1-methylcyclopropyl)amino]-1,3-thiazole-5-carboxamide], for which the IC50 in experiment [1] is 1000 nM; in experiment [2] it was 13 nM; in experiment [3] (setting [4]), 150 nM; at PDGFR-β, 100 nM.

In the case of `Cc1ccc(C(=O)N[C@H]2CCCC[C@@H]2O)cc1NCc1cnn(-c2ccccn2)c1` [Example 112, N-[(1S,2S)-2-hydroxycyclohexyl]-4-methyl-3-({[1-(pyridin-2-yl)-1H-pyrazol-4-yl]methyl}amino)benzamide], the IC50 in experiment [1] was 250 nM; in experiment [2], 1.3 nM; in experiment [3] (setting [4]), 26 nM; on PDGFR-β, 39 nM.

Regarding `Cc1ccc(C(=O)N[C@@H](CO)[C@@H](O)c2ccccc2)cc1CNc1cncc(C2CC2)c1` [Example 154, 3-{[(5-cyclopropylpyridin-3-yl)amino]methyl}-N-[(1S,2S)-1,3-dihydroxy-1-phenylpropan-2-yl]-4-methylbenzamide], the IC50 in experiment [1] is over 10000 nM; in experiment [2], 230 nM; in experiment [3] (setting [4]), 98 nM; at PDGFR-β, 340 nM.

For the compound `Cc1ccc(C(=O)N[C@H]2CCCC[C@@H]2O)cc1NC(=O)c1cncc(-c2ccc(C3CC3)cc2)c1` [Example 43, 5-(4-cyclopropylphenyl)-N-(5-{[(1S,2S)-2-hydroxycyclohexyl]carbamoyl}-2-methylphenyl)pyridine-3-carboxamide], the IC50 was 640 nM in experiment [1], 17 nM in experiment [2], 72 nM in experiment [3] (setting [4]) and 23 nM at PDGFR-β.

Turning to `C[C@H](Nc1cc(C(=O)N[C@H]2CCCC[C@@H]2O)ccc1Cl)c1cncc(-c2cccnc2)c1` [Example 90, 3-{[(1S)-1-([3,3′-bipyridin]-5-yl)ethyl]amino}-4-chloro-N-[(1S,2S)-2-hydroxycyclohexyl]benzamide], the IC50 in experiment [1] worked out at 8300 nM; in experiment [2] it was 35 nM; in experiment [3] (setting [4]) it was 360 nM; at PDGFR-β, 310 nM.

As for `Cc1ccc(C(=O)N[C@H]2CCCC[C@@H]2O)cc1NC(=O)c1cnc(NC2CC2)s1` [Example 1, 2-(cyclopropylamino)-N-(5-{[(1S,2S)-2-hydroxycyclohexyl]carbamoyl}-2-methylphenyl)-1,3-thiazole-5-carboxamide], the IC50 amounted to 480 nM in experiment [1], 17 nM in experiment [2], 110 nM in experiment [3] (setting [5]) and 5.9 nM on PDGFR-β.

As for `Cc1ccc(C(=O)N[C@H]2CCCC[C@@H]2O)cc1NC(=O)c1cnc2sccn12` [Example 45, N-(5-{[(1S,2S)-2-hydroxycyclohexyl]carbamoyl}-2-methylphenyl)imidazo[2,1-b][1,3]thiazole-5-carboxamide], the IC50 came to 92 nM in experiment [1], 0.8 nM in experiment [2], 56 nM in experiment [3] (setting [4]) and 15 nM at PDGFR-β.

As to `Cc1ccc(C(=O)N[C@H]2CCCC[C@@H]2O)cc1NC(=O)c1cncc(N(C)C2CC2)c1` [Example 17, 5-[cyclopropyl(methyl)amino]-N-(5-{[(1S,2S)-2-hydroxycyclohexyl]carbamoyl}-2-methylphenyl)pyridine-3-carboxamide], the IC50 in experiment [1] stood at 800 nM; in experiment [2], 10 nM; in experiment [3] (setting [5]) it was 130 nM; on PDGFR-β, 42 nM.

Consider `Cc1ccc(C(=O)N[C@H]2CCCC[C@@H]2O)cc1NC(=O)c1cncc(-c2ccc(F)cc2)c1` [Example 19, 5-(4-fluorophenyl)-N-(5-{[(1S,2S)-2-hydroxycyclohexyl]carbamoyl}-2-methylphenyl)pyridine-3-carboxamide], for which the IC50 came out at 1000 nM in experiment [1], 30 nM in experiment [2], 81 nM in experiment [3] (setting [5]) and 13 nM at PDGFR-β.

Take `Cc1ccc(C(=O)N[C@@H](CO)[C@@H](O)c2ccccc2)cc1CNc1cncc(-c2ccccc2)c1` [Example 153, N-[(1S,2S)-1,3-dihydroxy-1-phenylpropan-2-yl]-4-methyl-3-{[(5-phenylpyridin-3-yl)amino]methyl}benzamide]: the IC50 in experiment [1] is 7000 nM; in experiment [2], 27 nM; in experiment [3] (setting [4]), 62 nM; on PDGFR-β, 88 nM.

For the compound `Cc1ccc(C(=O)N[C@H]2CCCC[C@@H]2O)cc1NCc1cnc2ccsc2c1` [Example 108, N-[(1S,2S)-2-hydroxycyclohexyl]-4-methyl-3-{[(thieno[3,2-b]pyridin-6-yl)methyl]amino}benzamide], the IC50 in experiment [1] came to 300 nM; in experiment [2], 2.3 nM; in experiment [3] (setting [4]), 85 nM; on PDGFR-β it was 51 nM.

Take `COc1ccc(-c2cncc(NCc3cccc(NC(=O)N[C@@H]4CCCC[C@@H]4O)c3)n2)cc1OC` [Example 158, N-[3-({[6-(3,4-dimethoxyphenyl)pyrazin-2-yl]amino}methyl)phenyl]-N′-[(1R,2S)-2-hydroxycyclohexyl]urea]: the IC50 stood at 3000 nM in experiment [1], 41 nM in experiment [2], 22 nM in experiment [3] (setting [4]) and 26 nM on PDGFR-β.

With `Cc1ccc(C(=O)N[C@H]2CCCC[C@@H]2O)cc1NCc1cnc(NC2CC2)nc1` [Example 114, 3-({[2-(cyclopropylamino)pyrimidin-5-yl]methyl}amino)-N-[(1S,2S)-2-hydroxycyclohexyl]-4-methylbenzamide], the IC50 in experiment [1] stood at 960 nM; in experiment [2], 2.7 nM; in experiment [3] (setting [4]), 190 nM; on PDGFR-β it was 270 nM.

Turning to `Cc1c(F)cc(C(=O)N[C@H]2CCCC[C@@H]2O)cc1Nc1cccc(-c2cccnc2)n1` [Example 81, 3-[([2,3′-bipyridin]-6-yl)amino]-5-fluoro-N-[(1S,2S)-2-hydroxycyclohexyl]-4-methylbenzamide], the IC50 in experiment [1] stood at 3300 nM; in experiment [2] it was 140 nM; in experiment [3] (setting [4]), 110 nM; on PDGFR-β, 190 nM.

For the compound `Cc1ccc(C(=O)N[C@H]2CCCC[C@@H]2O)cc1NCc1cncc(-c2ccc(C(C)(C)N)cc2)c1` [Example 98, 3-[({5-[4-(2-aminopropan-2-yl)phenyl]pyridin-3-yl}methyl)amino]-N-[(1S,2S)-2-hydroxycyclohexyl]-4-methylbenzamide], the IC50 in experiment [1] was over 10000 nM; in experiment [2], 40 nM; in experiment [3] (setting [4]), 160 nM; at PDGFR-β, 140 nM.

Take `Cc1ccc(C(=O)N[C@H]2CCCC[C@@H]2O)cc1C#Cc1cncc(Br)c1` [Example 61, 3-[(5-bromopyridin-3-yl)ethynyl]-N-[(1S,2S)-2-hydroxycyclohexyl]-4-methylbenzamide]: the IC50 was found to be 840 nM in experiment [1], 18 nM in experiment [2], 18 nM in experiment [3] (setting [4]) and 41 nM on PDGFR-β.

As for `Cc1ccc(C(=O)N[C@H]2CCCC[C@@H]2O)cc1C#Cc1cncc(-c2ccccc2F)n1` [Example 69, 3-{[6-(2-fluorophenyl)pyrazin-2-yl]ethynyl}-N-[(1S,2S)-2-hydroxycyclohexyl]-4-methylbenzamide], the IC50 in experiment [1] was 330 nM; in experiment [2], 5.8 nM; in experiment [3] (setting [4]), 61 nM; at PDGFR-β, 25 nM.
